From patent US4406903A, “Xanthine derivatives useful as antidepressives” (John Wyeth and Brother Limited, priority 1981, dated 1983)
Where a name gives a salt, the structure may show the parent alone.

Legend:
[1] = tested on: noradrenaline uptake; assay: Inhibition of Noradrenaline Uptake in Brain Slices (Procedure 1); format: cell-based, rat; conditions: 3H-noradrenaline 10^-7 M; active if % inhibition at 10^-6 M is at least that of imipramine at 10^-7 M
Method: (§1) Inhibition of 5-Hydroxytryptamine or Noradrenaline Uptake in Brain Slices
Two rates (weighing 170-200 g) are decapitated and the brains rapidly removed and placed in ice-cold Krebs solution. The cerebral cortex on each side of the median line is opened out flat and cut to give two slabs of even thickness. The slabs are weighed and then sliced on a McIlwain tissue chopper. The tissue is sliced twice, the second cutting being at an angle of 45° to the first. The interval of cutting is 0.1 mm. The slices are transferred to a 5 ml conical flask and Krebs solution is added in the proportion 5 ml/g tissue. The slices are dispersed in the solution by sucking up and down in a Pasteur pipette. […]
(§2) The filter papers are placed in scintillation vials and soaked in 4 ml ethanol/methanol (3:1 v/v) for at least 45 minutes before addition of 10 ml liquid scintillator after which the samples are counted in a liquid scintillation counter.
Uptake inhibition is expressed as follows: [formula] […] In this case a dose response experiment is carried out with the test compound and impramine at concentrations of 10^-5 M, 10^-6 M and 10^-7 M. The % inhibition is again calculated in the same way and the results are plotted as % inhibition against log compound concentration. […] The potency ratio compared to imipramine is calculated as: [formula] […]

[2] = tested on: 5-hydroxytryptamine uptake; assay: Inhibition of 5-Hydroxytryptamine Uptake in Brain Slices (Procedure 1); format: cell-based, rat; conditions: for inhibition at 0.1 µM / inhibition at 1 µM / inhibition at 10 µM: rat cerebral cortex slices, 3H 5-hydroxytryptamine 10^-7 M; for Inhibition of 5-hydroxytryptamine uptake, potency ratio compared with imipramine: IC50-based ratio versus imipramine, rat brain slices; for Potency in 5-hydroxytryptamine tests (in words, versus imipramine): qualitative comparison with the standard inhibitor imipramine
Method: as §1
Two rates (weighing 170-200 g) are decapitated and the brains rapidly removed and placed in ice-cold Krebs solution. The cerebral cortex on each side of the median line is opened out flat and cut to give two slabs of even thickness. The slabs are weighed and then sliced on a McIlwain tissue chopper. The tissue is sliced twice, the second cutting being at an angle of 45° to the first. The interval of cutting is 0.1 mm. The slices are transferred to a 5 ml conical flask and Krebs solution is added in the proportion 5 ml/g tissue. The slices are dispersed in the solution by sucking up and down in a Pasteur pipette. When a satisfactory suspension is achieved it is pipetted in 50 μl portions into 25 ml conical flasks containing 4.5 ml chilled Krebs solution. An Eppendorf pipette with the tip cut back to about 1 mm diameter is used. The suspension is kept well mixed at this stage so that each portion taken contains the same amount of tissue (~10 mg). The flasks are gassed with 95% O2 /5% CO2 and sealed with aluminium foil. They are then placed in a water bath at 27° for 15 minutes pre-incubation.
Flasks in groups of four are then each treated by an addition in 0.5 ml. to achieve the following concentrations in the medium. […]
______________________________________
GROUP CONCENTRATION (CONCENTRATION)
A 10^-7 M TEST COMPOUND (10^-5 M)
B 10^-7 M IMIPRAMINE (10^-5 M)
C 10^-7 M IMIPRAMINE (10^-6 M)
D 10^-7 M IMIPRAMINE (10^-7 M)
After 20 minutes incubation the slices are filtered off in filter funnels connected to a vacuum line. Each flask in rinsed with 5 ml Krebs which is also poured through the filter funnel followed by a further 5 ml Krebs. For group F the treatment differs in that ^3 H 5-hydroxytryptamine in 0.5 ml is added immediately before filtration. This gives an estimation of the amount of activity retained by the filter from the solution together with the amount of non-specific binding by the tissue.
as §2
Uptake inhibition is expressed as follows: [formula] […] In this case a dose response experiment is carried out with the test compound and impramine at concentrations of 10^-5 M, 10^-6 M and 10^-7 M. The % inhibition is again calculated in the same way and the results are plotted as % inhibition against log compound concentration. The molar concentration which inhibits uptake by 50% (IC50) is determined. The potency ratio compared to imipramine is calculated as: [formula]

[3] = tested on: 5-hydroxytryptamine reuptake; assay: Inhibition of 5-hydroxytryptamine reuptake in rat cortical synaptosomes (Procedure 2); format: biochemical; conditions: for Selectivity Ratio (5-HT uptake over NA uptake): from IC50 values of NA and 5-HT uptake; for IC50: 10^-7 M 14C-5-hydroxytryptamine, 37° C., 4 min, pH 7.4, read-out: 5-HT Uptake IC50
Excerpt: (§3) Inhibition of 5-hydroxytryptamine and L-noradrenaline reuptake in rat cortical synaptosomes
(§4) "The isolation of nerve endings from brain: An electron microscopic study of cell fragments dervied by homogenisation and centrifugation."
(§5) Test object: Purified rat cortical synaptosomes (P2 B) from 8-10 male albino rats (190-250 g).
Procedure: Rats are stunned and then killed by decapitation. The brain is quickly removed and the cortex excised essentially free of striatum and mid-brain. […] The homogenate of concentration 10% w/v in 0.32 sucrose is centrifuged at an average centrifugal force of 1000×g for 10 minutes and the supernatant is decanted and centrifuged at an average of 10000×g for 20 min to obtain the crude mitochondrial pellet (P2). […] The synaptosomes are then centrifuged in a swing-out rotor at 97 000×g average for 30 min. […] (2 ml/g original tissue). Throughout the procedure, it is essential to maintain the tissue and synaptosomes at […]. Synaptosomes should be used within three hours of preparation. A 100 μl aliquot of this synaptosomal suspension (2.5-3.0 mg protein/ml) is added to the incubation medium (900 μl) which has been preincubated at 37° C. for 5 min. […] All reagents are of `Analar` grade and glass distilled water is used.
The quantity of material prepared per experiment would normally be sufficient to examine the effects of 30 different treatments (e.g. 6 compounds each at 5 concentrations in triplicate). […] The filters are then washed with 2.4 ml incubation medium. The radioactivity retained on the filter is determined by the addition of Instagel (10 ml) (Packard) and subsequent liquid scintillation counting to convert results into dpm. The non-specific binding and passive accumulation of both amines is corrected for by determining uptake in a sodium-free medium. Percentage inhibition of uptake is calculated as [formula] where background dpm is that accumulated in a sodium-free medium.
Assays are run in triplicate, with 2 or 3 control and background determinations inserted randomly. The selectivity ratio is calculated as: [formula]

[4] = tested on: L-noradrenaline reuptake; assay: Inhibition of L-noradrenaline reuptake in rat cortical synaptosomes (Procedure 2); format: biochemical; conditions: 10^-7 M 3H-L-noradrenaline, 37° C., 4 min, pH 7.4, read-out: NA Uptake IC50
Excerpt: as §3
Ref: E. G. Gray and V. P. Whittaker (1962). J. Anat 96, p 79-88.
as §4, §5
Procedure: Rats are stunned and then killed by decapitation. The brain is quickly removed and the cortex excised essentially free of striatum and mid-brain. The tissue is then gently homogenised (10 strokes at 840 rpm) in 0.32 M sucrose. […]
Test compounds may be present in 4 to 6 concentrations depending on previous experience, but normally the range would be 10^-9 M to 10^-6 M for an active compound. The quantity of material prepared per experiment would normally be sufficient to examine the effects of 30 different treatments (e.g. 6 compounds each at 5 concentrations in triplicate). […] The radioactivity retained on the filter is determined by the addition of Instagel (10 ml) (Packard) and subsequent liquid scintillation counting to convert results into dpm. […] Percentage inhibition of uptake is calculated as [formula] where background dpm is that accumulated in a sodium-free medium. […]

## Cn1c(=O)c2c(ncn2CCCNCCc2c[nH]c3ccc(O)cc23)n(C)c1=O [Example 1, 5-hydroxy-N-[3-(theophyllin-7-yl)propyl]tryptamine hydrochloride hemihydrate]
[1]
  Inhibition of noradrenaline uptake: INACTIVE
[2]
  inhibition at 0.1 µM: 44%
  inhibition at 1 µM: 77%
  inhibition at 10 µM: 84%
  Inhibition of 5-hydroxytryptamine uptake, potency ratio compared with imipramine: 4.3
  Potency in 5-hydroxytryptamine tests (in words, versus imipramine): considerably more potent than imipramine
[3]; rat cortical synaptosomes
  Selectivity Ratio (5-HT uptake over NA uptake): > 167
  IC50: 60 nM
[3]; qualitative, 5-HT versus NA uptake
  Selectivity of action (in words): very selective in its action
[3]; qualitative, rat cortical synaptosomes
  Inhibition of 5-HT uptake (in words): very potent inhibitor of 5-HT uptake
[4]
  IC50: > 10000 nM

## Cn1c(=O)c2c(ncn2CCCNCCc2c[nH]c3ccccc23)n(C)c1=O [Example 3, N-[3-theophyllin-7-yl)propyl]tryptamine hydrochloride]
[1]
  Inhibition of noradrenaline uptake: INACTIVE
[2]
  inhibition at 0.1 µM: 4%
  inhibition at 1 µM: 43%
  inhibition at 10 µM: 77%
  Inhibition of 5-hydroxytryptamine uptake, potency ratio compared with imipramine: 0.8
  Potency in 5-hydroxytryptamine tests (in words, versus imipramine): about the same order of potency as the standard inhibitor imipramine

## CN(C)CCCN1c2ccccc2CCc2ccccc21 [imipramine, reference compound]
[3]; rat cortical synaptosomes
  Selectivity Ratio (5-HT uptake over NA uptake): 0.5
  IC50: 100 nM
[4]
  IC50: 50 nM
